Assays:
MCF-7 cells = assay: MCF7 Viability Assay (Breast Cancer Cell Viability Assay); type: cell-based; conditions: 5 days' compound exposure, CellTiter-Glo; for IC50: Homo sapiens, MCF7, 120 h
Protocol: MCF-7 cells were adjusted to a concentration of 20,000 cells per mL in RPMI containing 10% FBS and 20 mM HEPES. 16 microliters of the cell suspension (320 cells) was added to each well of a 384 well plate, and the cells were incubated overnight to allow the cells to adhere. The following day an eleven point, serial semilog dilution of each compound was added to the cells in 16 μL at a final concentration ranging from 0.3-0.000003 μM. After 5 days' compound exposure, 16 μL of CellTiter-GLo (Promega, Madison Wis.) was added to the cells, and the relative luminescence units (RLUs) of each well were determined. CellTiter-Glo added to 32 μL of medium without cells was used to obtain a background value. The Percent viability of each sample was determined as follows: (RLU sample-RLU background/RLU untreated cells-RLU background)×100=% viability.

ER-α = biological target: T1, ER-α (Homo sapiens, UniProt P03372); assay: Breast Cancer Cell ER-α In Cell Western Assay (SP1); type: cell-based; conditions: MCF-7 cells, 4 or 24 hr post compound addition, SP1 antibody; for Emax: MCF7, read-out: ER-α In Cell Western Assay (SP1) Max Response; for DC50: read-out: ER-α In Cell Western Assay (SP1) IC50
T1 construct: endogenous in cells; host or cells: MCF-7
T1 sequence (P03372 1-595): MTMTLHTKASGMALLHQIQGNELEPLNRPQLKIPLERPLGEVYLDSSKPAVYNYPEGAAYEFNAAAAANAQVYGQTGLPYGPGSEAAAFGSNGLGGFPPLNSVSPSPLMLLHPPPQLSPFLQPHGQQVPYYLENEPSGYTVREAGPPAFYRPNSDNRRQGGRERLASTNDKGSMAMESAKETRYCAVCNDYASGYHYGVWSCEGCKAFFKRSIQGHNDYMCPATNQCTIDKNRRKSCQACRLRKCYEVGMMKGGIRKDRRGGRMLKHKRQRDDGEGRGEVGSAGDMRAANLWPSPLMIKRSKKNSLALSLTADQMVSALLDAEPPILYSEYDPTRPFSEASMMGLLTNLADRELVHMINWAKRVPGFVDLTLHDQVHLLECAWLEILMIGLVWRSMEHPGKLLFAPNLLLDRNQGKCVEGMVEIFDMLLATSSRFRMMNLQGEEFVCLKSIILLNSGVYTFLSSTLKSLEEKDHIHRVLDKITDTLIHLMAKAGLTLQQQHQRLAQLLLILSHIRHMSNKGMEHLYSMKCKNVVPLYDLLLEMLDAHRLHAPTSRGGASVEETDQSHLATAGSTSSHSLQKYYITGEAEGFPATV
Protocol: MCF-7 cells were adjusted to a concentration of 200,000 cells per mL in RPMI containing 10% charcoal-stripped FBS and 20 mM HEPES. 16 microliters of the cell suspension (3200 cells) was added to each well of a poly-D-lysine 384 well plate, and the cells were incubated overnight to allow the cells to adhere. The following day an eleven point, serial semilog dilution of each compound was added to the cells in 16 μL at a final concentration ranging from 0.3-0.000003 μM. At 4 or 24 hr post compound addition, the cells were fixed (10% formalin in PBS) for 20 minutes. Cells were permeablized in PBS 0.1% Triton and blocked with LICOR blocking buffer (50 μl/well, 90′). The wells were then incubated overnight at 4° C. with SP1 rabbit monoclonal Ab (Thermo Scientific) diluted 1:1000 in LICOR blocking buffer/0.1% Tween-20. Wells which were treated with blocking buffer with Tween but no antibody were used as a background control. Wells were washed with 0.1% Tween-20/PBS and then incubated in goat anti-rabbit IRDye™ 800 CW (LICOR Inc.; 1:10000) and DRAQ5 DNA dye (1:2000 for 2 mM stock) diluted in LICOR blocking buffer containing 0.1% Tween-20 and 0.01% SDS for 60 minutes. Cells were washed (50 μl/well, 5′ each) in 0.1% Tween-20/PBS. Plates were scanned on a LICOR Odyssey infrared imaging system. Integrated intensities in the 800 nm channel and 700 nm channel were measured to determine levels of ER and DNA respectively. Percent ER levels were determined as follows: (Integrated intensity 800 nm sample/integrated intensity 700 nm sample)/(Integrated intensity 800 nm untreated cells/integrated intensity 700 nm untreated cells)×100=% ER levels.

Row | IC50 (MCF-7 cells) [µM] | Emax (ER-α) [%] | DC50 (ER-α) [µM] | Compound | MCF7 Viability Assay Max Response (MCF-7 cells)
1 | ≤ 0.1 | ≥ 40 | ≤ 0.1 | CC/C(=C(/c1ccc(/C=C/C(=O)O)cc1)c1ccc(-c2cnn(C)c2)cc1)c1ccccc1 [Example 19, (E)-3-(4-((E)-1-(4-(1-Methyl-1H-pyrazol-4-yl)phenyl)-2-phenylbut-1-en-1-yl)phenyl)acrylic acid] | ++ (++ = a single % value ≧ 40%)
2 | ≤ 0.1 | ≥ 40 | ≤ 0.1 | CC/C(=C(/c1ccc(/C=C/C(=O)O)cc1)c1ccc(-c2cncs2)cc1F)c1ccccc1 [Example 20, (E)-3-(4-((E)-1-(2-Fluoro-4-(thiazol-5-yl)phenyl)-2-phenylbut-1-en-1-yl)phenyl)acrylic acid] | ++ (++ = a single % value ≧ 40%)
3 | ≤ 0.1 | ≥ 40 | ≤ 0.1 | CC/C(=C(/c1ccc(/C=C/C(=O)O)cc1)c1ccc(-c2cncs2)c(F)c1)c1ccccc1 [Example 21, (E)-3-(4-((E)-1-(3-Fluoro-4-(thiazol-5-yl)phenyl)-2-phenylbut-1-en-1-yl)phenyl)acrylic acid] | ++ (++ = a single % value ≧ 40%)
4 | ≤ 0.1 | ≥ 40 | ≤ 0.1 | CC/C(=C(/c1ccc(/C=C/C(=O)O)cc1)c1ccc(-c2cn[nH]c2)cc1)c1ccccc1 [Example 22, (E)-3-(4-((E)-1-(4-(1H-Pyrazol-4-yl)phenyl)-2-phenylbut-1-en-1-yl)phenyl)acrylic acid] | ++ (++ = a single % value ≧ 40%)
5 | > 0.1 | ≥ 40 | ≤ 0.1 | CC/C(=C(/c1ccc(/C=C/C(=O)O)cc1)c1ccc(N2CCN(C)CC2)cc1)c1ccccc1 [Example 23, (E)-3-(4-((E)-1-(4-(4-Methylpiperazin-1-yl)phenyl)-2-phenylbut-1-en-1-yl)phenyl)acrylic acid] | ++ (++ = a single % value ≧ 40%)
6 | > 0.1 | ≥ 40 | > 0.1 | CC/C(=C(/c1ccc(/C=C/C(=O)O)cc1)c1ccc(N2CCCCC2)cc1)c1ccccc1 [Example 24, (E)-3-(4-((E)-2-Phenyl-1-(4-(piperidin-1-yl)phenyl)but-1-en-1-yl)phenyl)acrylic acid] | ++ (++ = a single % value ≧ 40%)
7 | > 0.1 | ≥ 40 | > 0.1 | O=C(O)/C=C/c1ccc(/C(=C(\c2ccccc2)C2CCC2)c2ccc(-c3cncs3)cn2)cc1 [Example 25, (E)-3-(4-((E)-2-Cyclobutyl-2-phenyl-1-(5-(thiazol-5-yl)pyridin-2-yl)vinyl)phenyl)acrylic acid] | ++ (++ = a single % value ≧ 40%)
8 | > 0.1 | ≥ 40 | > 0.1 | O=C(O)/C=C/c1ccc(/C(=C(\c2ccccc2)C2CCC2)c2cccc(-c3cn[nH]c3)c2)cc1 [Example 26, (E)-3-(4-((E)-1-(3-(1H-Pyrazol-4-yl)phenyl)-2-cyclobutyl-2-phenylvinyl)phenyl)acrylic acid] | + (+ = a single % value < 40%)
9 | ≤ 0.1 | ≥ 40 | ≤ 0.1 | O=C(O)/C=C/c1ccc(/C(=C(\c2ccccc2)C2CCC2)c2ccc(-c3ccon3)cc2)cc1 [Example 27, (E)-3-(4-((E)-2-Cyclobutyl-1-(4-(isoxazol-3-yl)phenyl)-2-phenylvinyl)phenyl)acrylic acid] | ++ (++ = a single % value ≧ 40%)
10 | ≤ 0.1 | ≥ 40 | ≤ 0.1 | CC/C(=C(/c1ccc(/C=C/C(=O)O)cc1)c1ccc(-c2cncs2)cc1)c1ccncc1Cl [Example 28, (E)-3-(4-((E)-2-(3-Chloropyridin-4-yl)-1-(4-(thiazol-5-yl)phenyl)but-1-en-1-yl)phenyl)acrylic acid] | ++ (++ = a single % value ≧ 40%)
11 | ≤ 0.1 | ≥ 40 | ≤ 0.1 | CC/C(=C(/c1ccc(/C=C/C(=O)O)cc1)c1ccc(-c2cncs2)cc1)c1ccccc1Cl [Example 29, (E)-3-(4-((E)-2-(2-Chlorophenyl)-1-(4-(thiazol-5-yl)phenyl)but-1-en-1-yl)phenyl)acrylic acid] | ++ (++ = a single % value ≧ 40%)
12 | ≤ 0.1 | ≥ 40 | ≤ 0.1 | CC/C(=C(/c1ccc(/C=C/C(=O)O)cc1)c1ccc(-c2cncs2)cc1)c1cccc(OC)c1 [Example 30, (E)-3-(4-((E)-2-(3-Methoxyphenyl)-1-(4-(thiazol-5-yl)phenyl)but-1-en-1-yl)phenyl)acrylic acid] | ++ (++ = a single % value ≧ 40%)
13 | ≤ 0.1 | ≥ 40 | ≤ 0.1 | CC/C(=C(/c1ccc(/C=C/C(=O)O)cc1)c1ccc(-c2cncs2)cc1)c1ccc2occc2c1 [Example 31, (E)-3-(4-((E)-2-(Benzofuran-5-yl)-1-(4-(thiazol-5-yl)phenyl)but-1-en-1-yl)phenyl)acrylic acid] | ++ (++ = a single % value ≧ 40%)
14 | ≤ 0.1 | ≥ 40 | ≤ 0.1 | CC/C(=C(/c1ccc(/C=C/C(=O)O)cc1)c1ccc(-c2cncs2)cc1)c1cscc1C [Example 32, (E)-3-(4-((E)-2-(4-Methylthiophen-3-yl)-1-(4-(thiazol-5-yl)phenyl)but-1-en-1-yl)phenyl)acrylic acid] | ++ (++ = a single % value ≧ 40%)
15 | ≤ 0.1 | ≥ 40 | ≤ 0.1 | O=C(O)/C=C/c1ccc(/C(=C(\c2ccc(F)cc2Cl)C2CCC2)c2ccc(-c3cncs3)cc2)cc1 [Example 33, (E)-3-(4-((E)-2-(2-Chloro-4-fluorophenyl)-2-cyclobutyl-1-(4-(thiazol-5-yl)phenyl)vinyl)phenyl)acrylic acid] | ++ (++ = a single % value ≧ 40%)
16 | ≤ 0.1 | ≥ 40 | ≤ 0.1 | O=C(O)/C=C/c1ccc(/C(=C(\c2ccncc2Cl)C2CCC2)c2ccc(-c3cncs3)cc2)cc1 [Example 34, (E)-3-(4-((E)-2-(3-Chloropyridin-4-yl)-2-cyclobutyl-1-(4-(thiazol-5-yl)phenyl)vinyl)phenyl)acrylic acid] | ++ (++ = a single % value ≧ 40%)
17 | ≤ 0.1 | ≥ 40 | ≤ 0.1 | Cc1cscc1/C(=C(\c1ccc(/C=C/C(=O)O)cc1)c1ccc(-c2cncs2)cc1)C1CCC1 [Example 35, (E)-3-(4-((E)-2-Cyclobutyl-2-(4-methylthiophen-3-yl)-1-(4-(thiazol-5-yl)phenyl)vinyl)phenyl)acrylic acid] | ++ (++ = a single % value ≧ 40%)
18 | ≤ 0.1 | ≥ 40 | ≤ 0.1 | O=C(O)/C=C/c1ccc(/C(=C(\c2ccc(F)cc2Cl)C2CCC2)c2ccc(N3CCOCC3)cc2)cc1 [Example 36, (E)-3-(4-((E)-2-(2-Chloro-4-fluorophenyl)-2-cyclobutyl-1-(4-morpholinophenyl)vinyl)phenyl)acrylic acid] | ++ (++ = a single % value ≧ 40%)
